Results from patent US20190308963A1, “HETEROCYCLIC COMPOUNDS AND USES THEREOF” (priority 2018, published 2019).

Columns and labels:
PI3Kδ (p110δ/p85α) = PI3Kδ (p110δ/p85α) (Homo sapiens, UniProt O00329); assay: cell-free PI3K HTRF assay, PI3Kδ
Protocol: (§4) Exemplary compounds of the invention were tested for inhibitory activity or potency against class I PI3Ks (p110α/p85α, p110β/p85α, p110δ/p85α and p110γ) using a cell-free based PI3K HTRF assay. This assay was used to detect the formation of the product 3,4,5-inositol triphosphate molecule (PIP3) by displacement of biotin-PIP3 from an energy transfer complex consisting of Europium labeled anti-GST monoclonal antibody, a GST-tagged pleckstrin homology (PH) domain, biotinylated PIP3 and Streptavidin-Allophycocyanin (APC). […] The PIP3 product formed by human PI3-Kinase activity displaces biotin-PIP3 from the complex resulting in a loss of energy transfer and thus a decrease in signal.
(§5) Human class I PI3K isoforms were co-expressed in a Baculovirus infected cell expression system. The PI3K isoforms were assayed in the presence of HEPES (50 mM, pH 7.0), NaN3 (0.02%), BSA (0.01%), orthovanadate (0.1 mM), and DMSO (1%). The exemplary compounds dissolved in DMSO were delivered into the kinase reaction mixture by Acoustic technology (Echo550; nanolitter range), and were pre-incubated for 10 min at room temperature before adding ATP (10 μM) to initiate the reaction. […] The emission ratio is converted into μM PIP3 production based on PIP3 standard curves, and the nonlinear regression to obtain the standard curve and IC50 values are performed using Graphpad Prism software.

BRD4 (BD1) = target: T1, BRD4 (BD1) (Homo sapiens, UniProt O60885); assay: AlphaScreen FRET binding assay, BRD4 (BD1); details: read-out: IC50 value for the inhibition of BRD4 (BD1)
T1 construct: recombinant human BRD4 (BD1; aa 44-170); purchased Reaction Biology Corporation (contract assay service); host or cells: E. coli
Protocol: (§1) Exemplary compounds of the invention were tested for inhibitory activity or potency against BRD4 (BD1) and BRD4 (BD2) using AlphaScreen FRET binding assay, and exemplary compounds of the invention were further tested for inhibitory activity or potency against class I PI3Ks (p110α/p85α, p110β/p85α, p110δ/p85α and p110γ) using a cell-free based .P13K HTRF assay. All assays were performed at Reaction Biology Corporation, One Great Valley Parkway, Suite 2, Malvem, Pa.
(§2) Exemplary compounds of the invention were tested for inhibitory activity or potency against BRD4 (BD1) and BRD4 (BD2) using AlphaScreen FRET binding assay. […] Briefly, donor beads coated with streptavidin were incubated with biotinylated histone H4 peptide (residues 1-21) containing KAc (K5/^8/12/16Ac). In the absence of inhibitor, the. His-tagged reader domain of BRD4 binds to KAc-histone H4 peptide, thereby recruiting acceptor beads coated with a nickel chelator. Binding potential is assessed by detecting light emission (520-620 nm) from acceptor beads following laser excitation (680 nm) of a photosensitizer within the donor beads that converts ambient oxygen to singlet oxygen.
(§3) All IC50 values were reported in unites of nM.

class I PI3Ks = assay: summary in words of the class I PI3K (and BRD4) results; assay type: biochemical, human; details: for activity against PI3K in words: novel BRD inhibitors without PI3K activity; for overall activity in words (class I PI3Ks and BRD4): against both divergent targets
Protocol: Exemplary compounds of the invention were tested for inhibitory activity or potency against class I PI3Ks (p110α/p85α, p110β/p85α, p110δ/p85α and p110γ) using a cell-free based PI3K HTRF assay. This assay was used to detect the formation of the product 3,4,5-inositol triphosphate molecule (PIP3) by displacement of biotin-PIP3 from an energy transfer complex consisting of Europium labeled anti-GST monoclonal antibody, a GST-tagged pleckstrin homology (PH) domain, biotinylated PIP3 and Streptavidin-Allophycocyanin (APC). Excitation of Europium in the complex results in an energy transfer to the APC and a fluorescent emission at 665 nm. The PIP3 product formed by human PI3-Kinase activity displaces biotin-PIP3 from the complex resulting in a loss of energy transfer and thus a decrease in signal.
Human class I PI3K isoforms were co-expressed in a Baculovirus infected cell expression system. The PI3K isoforms were assayed in the presence of HEPES (50 mM, pH 7.0), NaN3 (0.02%), BSA (0.01%), orthovanadate (0.1 mM), and DMSO (1%). The exemplary compounds dissolved in DMSO were delivered into the kinase reaction mixture by Acoustic technology (Echo550; nanolitter range), and were pre-incubated for 10 min at room temperature before adding ATP (10 μM) to initiate the reaction. After 30 min at 30° C., the reactions were quenched with a stop solution, incubated overnight with a detection mixture before measuring HTRF (Ex: 320 nm; Em: 615/665 nm). The emission ratio is converted into μM PIP3 production based on PIP3 standard curves, and the nonlinear regression to obtain the standard curve and IC50 values are performed using Graphpad Prism software.
All IC50 values were reported in unites of nM. Empty cells indicate no inhibition or compound activity that could not be fit to an IC50 curve.
Dual inhibitors of class I PI3Ks and BRD4 are rare because class I PI3Ks and BRD4 are two structurally and functionally unrelated targets. […] The unexpected dual inhibitory activity or potency against both divergent targets is attributed to not only the unusual overall shape of the molecules of the present invention (as described in U.S. Pat. No. 9,637,488), but also the specific KAc-mimicking groups selected and their position incorporated into the quinoline ring.

BRD4 (BD2) = target: T2, BRD4 (BD2) (Homo sapiens, UniProt O60885); assay: AlphaScreen FRET binding assay, BRD4 (BD2); details: read-out: IC50 value for the inhibition of BRD4 (BD2)
T2 construct: recombinant human BRD4 (BD2; aa 349-460); purchased Reaction Biology Corporation (contract assay service); host or cells: E. coli
Protocol: as §1, §2, §3

PI3Kα (p110α/p85α) = PI3Kα (p110α/p85α) (Homo sapiens, UniProt P42336); assay: cell-free PI3K HTRF assay, PI3Kα
Chain of PI3Kα (p110α/p85α) (P42336 whole entry): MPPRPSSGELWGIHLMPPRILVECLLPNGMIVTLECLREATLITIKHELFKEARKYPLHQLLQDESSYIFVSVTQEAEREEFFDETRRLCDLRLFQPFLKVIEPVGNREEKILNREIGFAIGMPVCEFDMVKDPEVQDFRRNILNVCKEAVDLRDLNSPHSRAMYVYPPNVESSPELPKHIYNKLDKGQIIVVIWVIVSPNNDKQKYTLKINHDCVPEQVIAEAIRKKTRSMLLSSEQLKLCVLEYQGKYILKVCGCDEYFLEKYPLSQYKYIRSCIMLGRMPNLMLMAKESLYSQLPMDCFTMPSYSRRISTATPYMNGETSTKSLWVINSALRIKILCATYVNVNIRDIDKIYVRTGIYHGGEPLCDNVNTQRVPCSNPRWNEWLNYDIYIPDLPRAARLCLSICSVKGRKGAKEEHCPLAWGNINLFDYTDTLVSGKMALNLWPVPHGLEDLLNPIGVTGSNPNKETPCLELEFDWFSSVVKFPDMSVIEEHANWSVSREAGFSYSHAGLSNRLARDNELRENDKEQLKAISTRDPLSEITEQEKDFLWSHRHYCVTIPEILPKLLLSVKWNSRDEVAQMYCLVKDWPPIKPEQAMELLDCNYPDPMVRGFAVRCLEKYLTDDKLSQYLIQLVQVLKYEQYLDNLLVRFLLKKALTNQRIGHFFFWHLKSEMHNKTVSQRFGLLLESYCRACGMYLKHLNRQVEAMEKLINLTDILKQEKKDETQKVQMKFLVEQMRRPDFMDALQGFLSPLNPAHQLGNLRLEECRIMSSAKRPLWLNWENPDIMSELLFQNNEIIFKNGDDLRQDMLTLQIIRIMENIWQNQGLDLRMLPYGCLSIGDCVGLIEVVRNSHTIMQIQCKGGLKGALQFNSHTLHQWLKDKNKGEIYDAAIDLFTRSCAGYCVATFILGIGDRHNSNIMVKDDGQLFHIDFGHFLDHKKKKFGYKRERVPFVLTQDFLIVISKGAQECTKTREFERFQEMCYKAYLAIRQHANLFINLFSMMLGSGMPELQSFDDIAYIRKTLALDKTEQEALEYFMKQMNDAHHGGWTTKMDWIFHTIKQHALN
Chain of PI3Kα (p110α/p85α) (P27986 whole entry partner): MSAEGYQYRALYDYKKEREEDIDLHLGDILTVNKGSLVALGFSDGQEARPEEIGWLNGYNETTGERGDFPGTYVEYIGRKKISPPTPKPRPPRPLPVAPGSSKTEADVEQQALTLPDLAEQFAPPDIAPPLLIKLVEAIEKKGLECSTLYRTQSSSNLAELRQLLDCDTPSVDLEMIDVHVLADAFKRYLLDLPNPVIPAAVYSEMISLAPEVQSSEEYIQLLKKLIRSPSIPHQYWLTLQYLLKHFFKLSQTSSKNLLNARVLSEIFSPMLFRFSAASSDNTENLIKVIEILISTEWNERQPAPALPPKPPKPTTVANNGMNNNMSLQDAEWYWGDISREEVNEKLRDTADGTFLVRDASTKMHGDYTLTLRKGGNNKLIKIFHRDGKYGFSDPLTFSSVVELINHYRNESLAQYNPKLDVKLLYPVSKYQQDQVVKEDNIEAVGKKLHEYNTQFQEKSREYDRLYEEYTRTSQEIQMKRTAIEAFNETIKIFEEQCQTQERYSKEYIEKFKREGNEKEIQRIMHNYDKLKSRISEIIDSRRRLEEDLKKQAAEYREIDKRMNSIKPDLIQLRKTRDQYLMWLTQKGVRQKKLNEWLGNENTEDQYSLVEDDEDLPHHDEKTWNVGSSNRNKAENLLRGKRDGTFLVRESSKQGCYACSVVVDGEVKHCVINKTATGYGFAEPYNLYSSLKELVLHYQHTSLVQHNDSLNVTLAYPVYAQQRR
Protocol: as §4, §5

PI3Kβ (p110β/p85α) = PI3Kβ (p110β/p85α) (Homo sapiens, UniProt P42338); assay: cell-free PI3K HTRF assay, PI3Kβ
Chain of PI3Kβ (p110β/p85α) (P42338 whole entry): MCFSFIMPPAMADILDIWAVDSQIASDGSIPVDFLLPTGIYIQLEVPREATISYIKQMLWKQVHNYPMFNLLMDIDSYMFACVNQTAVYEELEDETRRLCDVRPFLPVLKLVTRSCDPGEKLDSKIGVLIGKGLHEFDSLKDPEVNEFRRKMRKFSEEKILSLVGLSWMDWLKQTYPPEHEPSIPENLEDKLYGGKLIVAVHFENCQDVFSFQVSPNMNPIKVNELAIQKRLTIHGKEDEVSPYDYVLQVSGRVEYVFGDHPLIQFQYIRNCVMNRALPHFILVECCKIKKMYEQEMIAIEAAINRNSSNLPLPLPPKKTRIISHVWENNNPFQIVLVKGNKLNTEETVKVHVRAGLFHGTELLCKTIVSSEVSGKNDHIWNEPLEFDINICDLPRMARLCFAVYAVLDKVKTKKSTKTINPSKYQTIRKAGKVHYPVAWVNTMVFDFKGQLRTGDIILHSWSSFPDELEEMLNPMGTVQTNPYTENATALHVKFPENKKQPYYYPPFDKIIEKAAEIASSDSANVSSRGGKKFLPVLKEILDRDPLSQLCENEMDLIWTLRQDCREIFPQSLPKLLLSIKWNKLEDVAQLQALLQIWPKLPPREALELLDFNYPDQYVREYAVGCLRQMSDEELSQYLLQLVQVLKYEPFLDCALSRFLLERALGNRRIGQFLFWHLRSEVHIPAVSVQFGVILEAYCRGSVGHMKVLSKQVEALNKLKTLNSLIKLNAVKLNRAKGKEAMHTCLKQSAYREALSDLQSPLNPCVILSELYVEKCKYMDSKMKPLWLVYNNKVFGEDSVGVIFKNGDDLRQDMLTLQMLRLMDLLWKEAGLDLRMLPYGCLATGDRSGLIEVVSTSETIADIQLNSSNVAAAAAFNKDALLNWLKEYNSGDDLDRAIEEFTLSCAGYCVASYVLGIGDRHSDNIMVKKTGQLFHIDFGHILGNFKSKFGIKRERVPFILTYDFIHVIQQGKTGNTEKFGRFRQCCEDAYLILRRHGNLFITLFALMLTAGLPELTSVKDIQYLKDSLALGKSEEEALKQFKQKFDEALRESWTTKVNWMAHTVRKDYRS
Chain of PI3Kβ (p110β/p85α) (P27986 whole entry partner): as the sequence (P27986 whole entry partner) above
Protocol: as §4, §5

PI3Kγ (p110γ) = PI3Kγ (p110γ) (Homo sapiens, UniProt P48736); assay: cell-free PI3K HTRF assay, PI3Kγ
Chain of PI3Kγ (p110γ) (P48736 whole entry): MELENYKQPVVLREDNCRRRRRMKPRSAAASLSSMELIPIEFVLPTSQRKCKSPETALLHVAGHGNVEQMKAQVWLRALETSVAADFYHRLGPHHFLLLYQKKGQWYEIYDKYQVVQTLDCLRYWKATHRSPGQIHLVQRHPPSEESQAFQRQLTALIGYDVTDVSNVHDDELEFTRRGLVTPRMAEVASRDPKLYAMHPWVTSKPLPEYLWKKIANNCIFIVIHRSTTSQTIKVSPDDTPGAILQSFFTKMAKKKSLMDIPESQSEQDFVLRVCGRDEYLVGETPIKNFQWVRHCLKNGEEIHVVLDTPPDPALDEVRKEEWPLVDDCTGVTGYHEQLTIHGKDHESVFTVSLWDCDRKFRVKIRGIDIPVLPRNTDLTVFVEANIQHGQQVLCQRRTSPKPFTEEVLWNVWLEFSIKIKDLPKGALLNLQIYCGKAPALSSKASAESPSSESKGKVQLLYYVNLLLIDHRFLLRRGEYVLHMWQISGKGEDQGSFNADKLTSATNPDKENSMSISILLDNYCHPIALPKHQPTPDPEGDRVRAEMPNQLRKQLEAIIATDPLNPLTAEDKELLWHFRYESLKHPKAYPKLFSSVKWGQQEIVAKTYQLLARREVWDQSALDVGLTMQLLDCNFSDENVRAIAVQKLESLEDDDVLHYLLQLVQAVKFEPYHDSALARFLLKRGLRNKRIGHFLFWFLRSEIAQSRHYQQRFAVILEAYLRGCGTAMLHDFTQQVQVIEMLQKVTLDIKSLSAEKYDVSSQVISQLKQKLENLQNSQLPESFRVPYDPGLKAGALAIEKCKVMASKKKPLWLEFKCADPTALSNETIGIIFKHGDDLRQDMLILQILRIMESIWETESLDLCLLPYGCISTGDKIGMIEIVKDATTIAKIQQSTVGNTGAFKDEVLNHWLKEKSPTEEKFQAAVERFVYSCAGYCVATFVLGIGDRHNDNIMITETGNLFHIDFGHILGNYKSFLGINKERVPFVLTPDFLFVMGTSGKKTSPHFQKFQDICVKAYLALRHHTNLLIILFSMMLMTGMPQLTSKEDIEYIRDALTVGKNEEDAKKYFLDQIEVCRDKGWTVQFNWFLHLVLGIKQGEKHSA
Protocol: as §4, §5

Chain of PI3Kδ (p110δ/p85α) (O00329 whole entry): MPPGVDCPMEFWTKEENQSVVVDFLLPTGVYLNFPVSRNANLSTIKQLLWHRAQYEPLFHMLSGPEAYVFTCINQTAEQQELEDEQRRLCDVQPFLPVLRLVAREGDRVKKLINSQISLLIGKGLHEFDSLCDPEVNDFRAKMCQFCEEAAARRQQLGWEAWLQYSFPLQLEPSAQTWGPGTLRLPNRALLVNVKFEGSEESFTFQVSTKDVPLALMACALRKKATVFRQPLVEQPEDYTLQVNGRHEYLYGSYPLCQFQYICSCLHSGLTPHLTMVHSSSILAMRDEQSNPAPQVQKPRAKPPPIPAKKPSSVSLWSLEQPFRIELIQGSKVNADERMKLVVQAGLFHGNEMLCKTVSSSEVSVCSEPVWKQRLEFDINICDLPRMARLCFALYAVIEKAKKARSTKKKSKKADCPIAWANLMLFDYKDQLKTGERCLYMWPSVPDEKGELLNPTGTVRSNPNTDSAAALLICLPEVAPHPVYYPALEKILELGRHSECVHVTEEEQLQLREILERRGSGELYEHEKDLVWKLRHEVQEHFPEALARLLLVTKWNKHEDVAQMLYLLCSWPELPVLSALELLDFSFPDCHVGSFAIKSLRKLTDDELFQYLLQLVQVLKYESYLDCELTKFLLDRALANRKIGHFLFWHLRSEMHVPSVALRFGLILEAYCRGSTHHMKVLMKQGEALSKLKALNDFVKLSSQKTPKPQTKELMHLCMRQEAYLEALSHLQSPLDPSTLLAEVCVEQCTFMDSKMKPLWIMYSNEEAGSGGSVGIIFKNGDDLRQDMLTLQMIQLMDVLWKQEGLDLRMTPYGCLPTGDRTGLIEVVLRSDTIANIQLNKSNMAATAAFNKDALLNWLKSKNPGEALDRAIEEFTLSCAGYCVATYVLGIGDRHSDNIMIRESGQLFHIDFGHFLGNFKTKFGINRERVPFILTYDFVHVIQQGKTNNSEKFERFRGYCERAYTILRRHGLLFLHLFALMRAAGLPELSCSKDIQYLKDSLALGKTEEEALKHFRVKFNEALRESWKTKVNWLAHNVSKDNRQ
Chain of PI3Kδ (p110δ/p85α) (P27986 whole entry partner): as the sequence (P27986 whole entry partner) above

| SMILES | IC50 (PI3Kδ (p110δ/p85α)) [nM] | IC50 (BRD4 (BD1)) [nM] | IC50 (BRD4 (BD2)) [nM] | IC50 (PI3Kα (p110α/p85α)) [nM] | IC50 (PI3Kβ (p110β/p85α)) [nM] | IC50 (PI3Kγ (p110γ)) [nM] | activity against PI3K in words (class I PI3Ks) | overall activity in words (class I PI3Ks and BRD4) (class I PI3Ks) |
| --- | --- | --- | --- | --- | --- | --- | --- | --- |
| Cc1noc(C)c1-c1nc2c(C)cccc2cc1C1CCCN1c1ncnc(N)c1C#N (stereo not drawn) [Compound 3, 4-amino-6-(2-(2-(3,5-dimethylisoxazol-4-yl)-8-methylquinolin-3-yl)pyrrolidin-1-yl)pyrimidine-5-carbonitrile] | 0.523 |  |  |  |  |  |  |  |
| Cc1nnc2ccc(N3CCN(c4nc5cc(F)ccc5cc4C4CCCN4c4ncnc(N)c4C#N)CC3)nn12 (stereo not drawn) [Compound 4, 4-amino-6-(2-(7-fluoro-2-(4-(3-methyl-[1,2,4]triazolo[4,3-b]pyridazin-6-yl)piperazin-1-yl)quinolin-3-yl)pyrrolidin-1-yl)pyrimidine-5-carbonitrile] | 0.66 | 8000 |  |  |  |  |  |  |
| Cc1nnc2ccc(-c3ccc4cc(C5CCCN5c5ncnc(N)c5C#N)c(N5CCOCC5)nc4c3)nn12 (stereo not drawn) [Compound 7] |  | 694 |  |  |  |  |  |  |
| Cc1noc(C)c1-c1cccc2cc(C3CCCN3c3ncnc(N)c3C#N)c(N3CCOCC3)nc12 (stereo not drawn) [Compound 9] | 3.25 | 9460 |  |  |  |  |  |  |
| Cc1nnc2ccc(-c3cccc4cc(C5CCCN5c5ncnc(N)c5C#N)c(N5CCOCC5)nc34)nn12 (stereo not drawn) [Compound 10] | 30.5 | 3980 |  |  |  |  |  |  |
| Cc1cc(-c2c(F)ccc3cc(C4CCCN4c4nc(N)nc(N)c4C#N)c(N4CCOCC4)nc23)cn(C)c1=O (stereo not drawn) [Compound 13] |  | 799 | 12.4 |  |  | > 10000 |  | inactive |
| Cc1cc(-c2c(F)ccc3cc(C4CCCN4c4nc(N)nc5[nH]cnc45)c(N4CCOCC4)nc23)cn(C)c1=O (stereo not drawn) [Compound 14] |  | > 10000 | 4210 |  |  |  |  |  |
| Cc1cc(-c2c(F)ccc3cc(C4CCCN4c4ncnc(N)c4C#N)c(N4CCOCC4)nc23)cn(C)c1=O (stereo not drawn) [Compound 15] |  | 1250 | 680 |  |  |  |  |  |
| Cc1cc(-c2ccc(F)c3cc(C4CCCN4c4ncnc(N)c4C#N)c(N4CCOCC4)nc23)cn(C)c1=O (stereo not drawn) [Compound 16] |  |  | 4970 |  |  |  |  | inactive |
| Cc1cc(-c2ccc(F)c3cc(C4CCCN4c4nc(N)nc(N)c4C#N)c(N4CCOCC4)nc23)cn(C)c1=O (stereo not drawn) [Compound 17] |  |  | 745 |  |  | > 10000 |  |  |
| Cc1cc(-c2cccc3cc(C4CCCN4c4ncnc(N)c4C#N)c(N4CCCCC4)nc23)cn(C)c1=O (stereo not drawn) [Compound 18] | 1.89 | 84.5 | 85.2 | 4270 | 874 | 39.2 |  |  |
| CC(C)Nc1nc2c(-c3cn(C)c(=O)c4[nH]ccc34)cccc2cc1C1CCCN1c1ncnc(N)c1C#N (stereo not drawn) [Compound 22] | 19.3 | 636 | 74.5 | 544 | 3550 | 171 |  |  |
| Cn1cc(-c2cccc3cc(CNc4nc(N)nc(N)c4C#N)c(N4CCOCC4)nc23)c2cc[nH]c2c1=O [Compound 25] | 1.98 | 55.3 | 20.7 | 20.5 | 43.3 | 16.7 |  |  |
| Cc1cc(-c2cccc3cc(C4CCCN4c4ncnc(N)c4C#N)c(-c4ccccc4)nc23)cn(C)c1=O (stereo not drawn) [Compound 28] | 1.56 | 446 | 148 | 1020 | 354 | 11.7 |  |  |
| Cc1cc(-c2cccc3cc(C4CCCN4c4ncnc(N)c4C#N)c(-c4cccnc4)nc23)cn(C)c1=O (stereo not drawn) [Compound 29] | 1.23 | 37.9 | 46.6 | 867 | 263 | 19.2 |  |  |

More lines, main results first:

| IC50 (PI3Kδ (p110δ/p85α)) [nM] | IC50 (BRD4 (BD1)) [nM] | IC50 (BRD4 (BD2)) [nM] | IC50 (PI3Kα (p110α/p85α)) [nM] | IC50 (PI3Kβ (p110β/p85α)) [nM] | IC50 (PI3Kγ (p110γ)) [nM] | SMILES | activity against PI3K in words (class I PI3Ks) | overall activity in words (class I PI3Ks and BRD4) (class I PI3Ks) |
| --- | --- | --- | --- | --- | --- | --- | --- | --- |
|  | 3.5 |  |  |  |  | Cn1cc(-c2ccc3cc(C4CCCN4c4ncnc(N)c4C#N)c(N4CCOCC4)nc3c2)c2cc[nH]c2c1=O (stereo not drawn) [Compound 6] | PI3K-inactive |  |
|  | 28 | 7.7 |  |  |  | Cc1cc(-c2ccc3cc(C4CCCN4c4ncnc(N)c4C#N)c(N4CCOCC4)nc3c2)cn(C)c1=O (stereo not drawn) [Compound 8] | PI3K-inactive |  |
| 5.34 | 24 | 86 | 247 | 567 | 56.6 | Cc1cc(-c2cccc3cc(C4CCCN4c4ncnc(N)c4C#N)c(N4CCOCC4)nc23)cn(C)c1=O (stereo not drawn) [Compound 11] |  |  |
| 5 | 35 |  |  |  |  | Cn1cc(-c2cccc3cc(C4CCCN4c4ncnc(N)c4C#N)c(N4CCOCC4)nc23)c2cc[nH]c2c1=O (stereo not drawn) [Compound 12] |  |  |
| 3.04 | 23.9 | 19.3 | 535 | 596 | 79.8 | Cc1cc(-c2cccc3cc(C4CCCN4c4ncnc(N)c4C#N)c(N(C)C)nc23)cn(C)c1=O (stereo not drawn) [Compound 19] |  |  |
| 3.68 | 24.8 | 18.1 | 53.7 | 118 | 2 | Cn1cc(-c2cccc3cc(C4CCCN4c4nc(N)nc(N)c4C#N)c(N4CCOCC4)nc23)c2cc[nH]c2c1=O (stereo not drawn) [Compound 21] |  |  |
| 0.73 | 26.7 | 12.9 | 153 | 191 | 13 | Cc1cc(-c2cccc3cc([C@@H]4CCCN4c4ncnc(N)c4C#N)c(N4CCOCC4)nc23)cn(C)c1=O [Compound 23] |  |  |
| 0.938 | 12.5 | 9.07 | 18.2 | 53.9 | 1.43 | Cn1cc(-c2cccc3cc([C@@H]4CCCN4c4nc(N)nc(N)c4C#N)c(N4CCOCC4)nc23)c2cc[nH]c2c1=O [Compound 24] |  |  |
